We go through 21 molecules from ChEMBL document CHEMBL1128201, “Selective and potent monoamine oxidase type B inhibitors: 2-substituted 5-aryltetrazole derivatives” (J Med Chem, 1995).

One assay has as its target T1, Amine oxidase [flavin-containing] A (Rattus norvegicus, UniProt P21396).
T1 sequence (P21396 whole entry): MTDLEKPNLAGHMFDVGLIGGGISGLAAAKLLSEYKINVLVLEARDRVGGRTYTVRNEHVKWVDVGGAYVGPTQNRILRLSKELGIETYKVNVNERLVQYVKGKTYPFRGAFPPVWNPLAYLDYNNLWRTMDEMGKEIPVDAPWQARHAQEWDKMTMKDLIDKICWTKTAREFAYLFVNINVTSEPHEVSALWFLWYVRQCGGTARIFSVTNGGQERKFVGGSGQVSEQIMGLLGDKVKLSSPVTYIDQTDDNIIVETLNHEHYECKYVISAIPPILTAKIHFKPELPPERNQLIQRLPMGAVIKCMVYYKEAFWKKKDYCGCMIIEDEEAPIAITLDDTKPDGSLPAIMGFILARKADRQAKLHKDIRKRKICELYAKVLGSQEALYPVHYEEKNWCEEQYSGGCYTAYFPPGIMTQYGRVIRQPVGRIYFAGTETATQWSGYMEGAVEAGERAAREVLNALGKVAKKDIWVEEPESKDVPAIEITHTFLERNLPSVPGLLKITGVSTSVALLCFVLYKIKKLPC
The assay can be described thus: In vitro inhibitory activity against rat brain Monoamine oxidase A.
Details: not given
As for `N#CCCn1nnc(-c2ccncc2)n1`, the IC50 (in general, the concentration needed to halve the response being measured) was over 100 µM. The same measure, in the same setting: with `Cc1cccc(COc2ccc(-c3nnn(CCC#N)n3)cc2)c1` the figure was over 100 µM; with `OCCn1nnc(-c2ccc(-c3ccccc3)cc2)n1`, 11 µM. On the same count and under the same terms, with `OCCCCn1nnc(-c2ccc(-c3ccccc3)cc2)n1` the figure was 13 µM.

On to `N#CCCn1nnc(-c2ccc(OCc3ccccc3Cl)cc2)n1`, for which the IC50 was over 100 µM. Turning to `O=[N+]([O-])c1ccc(-c2nnn(CCO)n2)cc1`, the concentration for half-maximal inhibition (IC50) is over 100 µM. The same measure, in the same setting: under `COc1cccc(COc2ccc(-c3nnn(CCC#N)n3)cc2)c1` stands over 100 µM; under `COc1ccc(COc2ccc(-c3nnn(CCC#N)n3)cc2)cc1`, over 100 µM; under `COc1cccc(COc2ccc(-c3nnn(CCO)n3)cc2)c1`, 80 µM. Molecule `N#CCCn1nnc(-c2ccc(OCc3ccc(F)cc3)cc2)n1` showed an IC50 of over 100 µM. Molecule `COc1ccc(COc2ccc(-c3nnn(CCO)n3)cc2)cc1` showed an IC50 of over 100 µM. `OCCn1nnc(-c2ccccc2)n1` gave an IC50 of over 100 µM. Still for that read-out and setting: with `Cc1cccc(COc2ccc(-c3nnn(CCO)n3)cc2)c1` the figure was over 100 µM; with `Cc1ccccc1COc1ccc(-c2nnn(CCO)n2)cc1`, over 100 µM.

The target in the next assay is T1, Amine oxidase [flavin-containing] A. The assay can be described thus: Ex vivo inhibitory activity against rat brain monoamine oxidase (MAO) type A at a dose of 5 mg/kg administered orally at 24 hr. The assay is classed as functional, organism-based. Details: dose 5 mg/kg, route oral. Particulars: po.
Consider `C#CCN(C)[C@H](C)Cc1ccccc1` [SELEGILINE], for which testing at 5 mg/kg gave an inhibition of 2%.

A further assay addresses T2, Amine oxidase [flavin-containing] B (Rattus norvegicus, UniProt P19643).
T2 sequence (P19643 whole entry): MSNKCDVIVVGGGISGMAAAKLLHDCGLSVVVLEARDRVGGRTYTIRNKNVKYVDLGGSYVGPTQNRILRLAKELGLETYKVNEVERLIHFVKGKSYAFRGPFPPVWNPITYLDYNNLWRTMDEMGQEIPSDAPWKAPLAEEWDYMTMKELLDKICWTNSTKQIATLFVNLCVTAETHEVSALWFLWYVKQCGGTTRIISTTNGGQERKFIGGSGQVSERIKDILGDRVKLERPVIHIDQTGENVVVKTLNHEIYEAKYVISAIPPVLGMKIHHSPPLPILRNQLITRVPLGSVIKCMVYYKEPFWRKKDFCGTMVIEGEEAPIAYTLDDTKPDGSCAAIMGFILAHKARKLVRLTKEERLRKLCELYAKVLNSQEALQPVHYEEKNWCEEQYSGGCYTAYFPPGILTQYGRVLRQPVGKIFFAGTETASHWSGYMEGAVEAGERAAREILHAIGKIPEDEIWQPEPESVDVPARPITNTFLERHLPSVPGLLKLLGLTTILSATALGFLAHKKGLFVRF
As to the kind of experiment: In vitro inhibitory activity against rat brain Monoamine oxidase B.
Details: not given
`N#CCCn1nnc(-c2ccc(-c3ccccc3)cc2)n1` displayed an IC50 of 0.84 µM. In other words, the sub-micromolar range.

In turn, `OCCn1nnc(-c2ccc(OCc3ccc(Cl)cc3)cc2)n1` registered an IC50 of 0.32 µM. On the same count and under the same terms, under `N#CCCn1nnc(-c2ccncc2)n1` stands 30 µM. The molecule `OCCn1nnc(-c2ccc(-c3ccccc3)cc2)n1` returned an IC50 of 0.96 µM. Compared with the last molecule, the IC50 is about 31-fold lower. Molecule `OCCCCn1nnc(-c2ccc(-c3ccccc3)cc2)n1` came in with a concentration for half-maximal inhibition (IC50) of 9.4 µM. Same read-out and setting: under `N#CCCn1nnc(-c2ccc(OCc3ccccc3Cl)cc2)n1` stands 0.03 µM. `O=[N+]([O-])c1ccc(-c2nnn(CCO)n2)cc1`: the IC50 is over 100 µM. Still for that read-out and setting: under `OCCn1nnc(-c2ccc(OCc3ccccc3Cl)cc2)n1` stands 9 µM; under `OCCn1nnc(-c2ccccc2)n1`, 89 µM.

The target in another assay is T1, Amine oxidase [flavin-containing] A. As to the kind of experiment: Ex vivo inhibitory activity against rat brain monoamine oxidase (MAO) type A at a dose of 5 mg/kg administered orally at 8 hr. More on the design: dose 5 mg/kg, route oral. Particulars: po. The assay is classed as functional, organism-based.
Turning to `C#CCN(C)[C@H](C)Cc1ccccc1` [SELEGILINE], at 5 mg/kg the inhibition was 5%.

Another assay concerns the target T2, Amine oxidase [flavin-containing] B. The assay can be described thus: Compound was evaluated for the Inhibition of Monoamine oxidase B.
Details: not given
Molecule `N#CCCn1nc(-c2ccc(OCc3ccccc3)cc2)oc1=O` showed a concentration for half-maximal inhibition (IC50) of 0.0046 µM. This lies in the single-digit nanomolar range.

Molecule `N#CCCn1nc(-c2ccc(OCc3ccccc3)cc2)oc1=S` gave an IC50 of 0.0046 µM.

The target is the same in another assay. The assay can be described thus: Ex vivo inhibitory activity against rat brain monoamine oxidase (MAO) type B at a dose of 5 mg/kg administered orally at 24 hr. Details: dose 5 mg/kg, route oral. The assay is classed as functional, organism-based. Particulars: po.
In the case of `C#CCN(C)[C@H](C)Cc1ccccc1` [SELEGILINE], at 5 mg/kg the inhibition was 81%.

The next assay deals with T1, Amine oxidase [flavin-containing] A. The assay can be described thus: Ex vivo inhibitory activity against rat brain monoamine oxidase (MAO) type A at a dose of 5 mg/kg administered orally at 1 hr. The assay is classed as organism-based. Details: dose 5 mg/kg, route oral. To be noted: po.
Consider `C#CCN(C)[C@H](C)Cc1ccccc1` [SELEGILINE], for which the inhibition (as a rule, the change of the read-out against control, counted positive when it falls) at 5 mg/kg came out at 3%.

The target in a further assay is T2, Amine oxidase [flavin-containing] B. As to the kind of experiment: Ex vivo inhibitory activity against rat brain monoamine oxidase (MAO) type B at a dose of 5 mg/kg administered orally at 1 hr. Particulars: po.
As for `C#CCN(C)[C@H](C)Cc1ccccc1` [SELEGILINE], the inhibition at 5 mg/kg amounted to 83%.

Tested on in a further assay: not listed separately
As to the kind of experiment: Selectivity for the B form was estimated by the IC50(MAO A)/IC50(MAO B) ratio.
Details: not given
As to `N#CCCCCCCn1nnc(-c2ccc(-c3ccccc3)cc2)n1`, the Selectivity is 8.5.

Regarding `Cc1ccccc1COc1ccc(-c2nnn(CCO)n2)cc1`, the Selectivity is over 350.
